Assay results: US7041785B1, “B1-bradykinin receptor antagonists and use thereof” (Université de Sherbrooke, priority 1996, dated 2006)
Non-standard residues stand in square brackets, D forms with d. Residues, ends and D or L forms follow the SMILES beside them. d2Nal = N[C@H](Cc1ccc2ccccc2c1)C(=O)O; dTic = O=C(O)[C@H]1Cc2ccccc2CN1; NMeA = CN[C@@H](C)C(=O)O

How the values were obtained:
[1] = system: T1, angiotensin-converting enzyme (ACE); assay: Metabolic degradation by purified angiotensin-converting enzyme, HPLC analysis; format: in vitro ADME, rabbit; settings: rabbit, isolated enzyme ace, pH 7.5
T1 construct: purified angiotensin-converting enzyme (ACE) from rabbit lungs; purchased Sigma, St-Louis, Mo; host or cells: purified from rabbit lungs
Procedure: The metabolic stability of various kinin-related peptides was evaluated by incubating the peptide in the presence of purified angiotensin-converting enzyme (ACE) from rabbit lungs (purchased from Sigma, St-Louis, Mo.) dissolved in phosphate buffered saline (PBS) (50 mmol/L, pH 7.5 containing 300 mmoL/L NaCl); the final concentration of enzyme was 45 μg/mL. The experimental protocol for the measurement of ACE activity has been described elsewhere^15,16. Briefly, 200 μmol/L of peptides (40 μL) were placed in a PBS buffer and incubated for 5 min at 37EC before adding 8.5 μL of ACE (total volume of the reaction medium; 190 μL). Samples were withdrawn at 30 min intervals, immersed in boiling water for 5 min, then cooled on ice and centrifuged (5 min) before proceeding to analysis of peptides by high pressure liquid chromatography (HPLC). Results of ACE metabolism are expressed in percent of kinin degradation following the incubation (30 min) of kinin substrates with the enzyme.
Pure peptides and metabolic products were analysed by reverse-phas HPLC on a C18 μBondapak column (4.6 mm×25 cm) (Waters) of 10-μm particle size. The peptides and their fragments were eluted at the rate of 2.0 mL/min. with a linear gradient ranging from 5 to 65% of acetonitrile/TFA 0.05%/water over 20 min. at room temperature. The elution positions of these peptides were determined by following the absorbance at 214 nm. For each assay, 50 μL of the reaction medium (treated or not with ACE) were extracted and injected into the column. Concentrations of the peaks products, different from the peaks of the peptide substrate, were estimated using a computer software program (Baseline 810; Waters) that controlled also all the chromatography operations. Isolated metabolites and substrates were collected and identified by Electrospray mass spectrometry (positive mode).

B2 receptor [2] = target: T2, B2 receptor (Oryctolagus cuniculus, UniProt Q28642); settings: vs BK; captopril 1 μmol/L; Inactive = no detectable antagonistic effect at ≦ 10 μg/ml
T2 sequence (Q28642 1-367): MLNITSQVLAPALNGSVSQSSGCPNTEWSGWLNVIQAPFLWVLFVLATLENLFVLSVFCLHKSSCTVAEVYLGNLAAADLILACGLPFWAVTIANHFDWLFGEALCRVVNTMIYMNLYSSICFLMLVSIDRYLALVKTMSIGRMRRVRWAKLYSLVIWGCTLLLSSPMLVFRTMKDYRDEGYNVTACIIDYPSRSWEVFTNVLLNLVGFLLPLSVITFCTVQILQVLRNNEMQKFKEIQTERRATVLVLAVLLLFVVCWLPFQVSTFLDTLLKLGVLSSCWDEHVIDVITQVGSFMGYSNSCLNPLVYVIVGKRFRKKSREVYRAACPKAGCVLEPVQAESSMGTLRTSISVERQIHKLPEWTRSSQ

B1 receptor = target: T3, B1 receptor (Oryctolagus cuniculus, UniProt P48748); assay: cell-based; settings: for Kb: Rb.A. pA2, apparent affinity as antagonist vs desArg9BK; for Rb.A. α^E: residual agonistic activity at 10 μg/mL in comparison with desArg9BK
T3 sequence (P48748 1-352): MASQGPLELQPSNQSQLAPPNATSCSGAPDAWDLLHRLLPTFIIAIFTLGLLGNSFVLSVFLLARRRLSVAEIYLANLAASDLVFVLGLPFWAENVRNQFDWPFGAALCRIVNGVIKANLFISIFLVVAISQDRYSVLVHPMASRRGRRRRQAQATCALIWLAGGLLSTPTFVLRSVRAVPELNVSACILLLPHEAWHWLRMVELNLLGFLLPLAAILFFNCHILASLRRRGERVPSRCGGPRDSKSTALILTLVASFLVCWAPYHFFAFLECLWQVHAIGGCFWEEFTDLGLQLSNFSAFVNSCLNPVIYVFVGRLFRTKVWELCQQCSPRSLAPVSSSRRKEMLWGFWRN
Text: (§1) Tissues were taken from New Zealand white rabbits (1.5–2.5 kg) and Dunken Hartley guinea pigs (250–350 g) of either sex, killed by stunning and exsanguination. Umbilical cords were taken from healthy women 22–40 years old after spontaneous delivery at term. The rabbit jugular vein (RbJV), the guinea pig ileum (GPI), two preparations containing B2 receptors, the rabbit aorta (RbA) (B1 receptor) and the human umbilical vein (HUV), a mixed preparation containing both B1 and B2 receptors^10, were used. Helical strips of RbJV treated with 1 μmol/L of captopril to avoid peptide degradation by the angiotensin-converting enzyme (ACE), alias kininase II were prepared according to Gaudreau et al.^11 Helical strips of RbA devoid of endothelium were prepared according to Furchgott and Bhadrakom^12. Longitudinal segments of GPI were prepared with the procedure described by Rang^13. Helical strips of HUV were prepared according to Gobeil et al.^10. The tissues were suspended in 10-ml organ baths containing warm (37EC), oxygenated (95% O2–5% CO2) Krebs solution of the following composition in mmol/L; NaCl: 118.1; KCl: 4.7; CaCl26H2O: 2.5; KH2PO4: 1.2; MgSO47H2O: 1.18; NaHCO3: 25.0 and D-Glucose: 5.5. The RbA and the HUV were stretched with an initial tension of 2 g, whereas the RbJV and the GPI were loaded with 0.5 g. Changes of tension produced by the various agents were measured with Grass isometric transducers (model FT 03C, Grass Instrument Co., Quincy, Mass.). […] Before testing the drugs, the tissues were allowed to equilibrate for 60–120 min during which time the tissues were repeatedly washed and the tension readjusted every 15 min.
(§2) At the beginning of each experiment, a submaximal dose of bradykinin (BK) (9 nmol/L), was applied repeatedly on the RbJV, the GPI or the HUV to ensure that tissues responded with stable contractions. […] A similar protocol was used for the HUV.
(§3) Repeated applications of a singl and double concentration of BK (on RbJV, GPI and HUV) and of desArg^9BK (RbA and HUV) were made in the absence and in presence of the various peptides to evaluate their apparent affinities as antagonists, in terms of pA2 (-log10 of the molar concentration of antagonist that reduces the effect of a double concentration of agonist to that of a single one)^14. The antagonists were applied 10 min before measuring the myotropic effects of either BK (the B2 receptor agonist) or desArg^9BK (the B1 receptor agonist). […] All kinin antagonists were initially applied to tissues at concentration of 10 μg/mL to measure their potential agonistic activities (α^E) in comparison with BK (in the B2 receptor preparations) or desArg^9BK (in the B1 receptor preparations).

B2 receptor [3] = target: T4, B2 receptor (Cavia porcellus, UniProt O70526); assay: cell-based; settings: for G.P.I. pA2: vs BK, Inactive = no detectable antagonistic effect at ≦ 10 μg/ml, F.ag. full agonist, P.ag. partial agonist; for G.P.I. α^E: residual agonistic activity at 10 μg/mL in comparison with BK
T4 sequence (O70526 1-372): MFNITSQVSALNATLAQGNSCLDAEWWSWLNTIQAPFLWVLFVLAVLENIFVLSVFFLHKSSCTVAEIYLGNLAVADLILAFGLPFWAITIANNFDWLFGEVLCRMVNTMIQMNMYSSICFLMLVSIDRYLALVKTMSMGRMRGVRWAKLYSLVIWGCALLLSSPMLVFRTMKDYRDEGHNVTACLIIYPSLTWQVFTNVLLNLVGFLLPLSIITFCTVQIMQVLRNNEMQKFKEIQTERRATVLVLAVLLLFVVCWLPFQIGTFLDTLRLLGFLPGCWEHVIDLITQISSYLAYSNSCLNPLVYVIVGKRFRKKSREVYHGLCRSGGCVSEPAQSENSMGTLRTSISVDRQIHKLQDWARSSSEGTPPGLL
Text: as §1, §2, §3

B2 receptor [4] = target: T2, B2 receptor; assay: cell-based; settings: residual agonistic activity at 10 μg/mL in comparison with BK
Text: as §1, §2, §3

[5] = antagonist applied 10 min before, Inactive = no detectable antagonistic effect at ≦ 10 μg/ml

Row | Compound | metabolised at 0.5 h, 42.1 μmol/L [1] | Rb.J.V. pA2 (B2 receptor [2]) | Kb (B1 receptor; [5]) | G.P.I. pA2 (B2 receptor [3]) | Kb (B2 receptor [3]) | Rb.J.V. α^E (B2 receptor [4]) | Rb.A. α^E (B1 receptor) | G.P.I. α^E (B2 receptor [3]) | metabolised at 0.5 h [1] | EC50 (B2 receptor [3]) | Rb.A. pA2 (B1 receptor; apparent affinity as antagonist vs desArg9BK, antagonist applied 10 min before, Inactive = no detectable antagonistic effect at ≦ 10 μg/ml)
1 | CC(C)C[C@H](NC(=O)[C@@H]1CCCN1C(=O)[C@H](CO)NC(=O)[C@H](Cc1ccccc1)NC(=O)CNC(=O)[C@@H]1CCCN1C(=O)[C@@H]1CCCN1C(=O)[C@@H](N)CCCNC(=N)N)C(=O)O [Compound 1, (Leu^8)desArg^9BK, reference compound] | 83 ± 2% | Inactive | 0.0575 µM | Inactive | – | – | – | – | – | – | –
2 | CC(C)C[C@H](NC(=O)[C@@H]1CCCN1C(=O)[C@H](CO)NC(=O)[C@H](Cc1ccccc1)NC(=O)CNC(=O)[C@@H]1C[C@@H](O)CN1C(=O)[C@@H]1CCCN1C(=O)[C@H](CCCNC(=N)N)NC(=O)[C@@H](N)CCCCN)C(=O)O [Compound 3, Lys(Hyp^3, Leu^8)desArg^9BK] | 40 ± 3% | Inactive | 0.00692 µM | Inactive | – | – | – | – | – | – | –
3 | CC(C)C[C@H](NC(=O)[C@@H]1CCCN1C(=O)[C@H](CO)NC(=O)[C@H](Cc1ccccc1)NC(=O)CNC(=O)[C@@H]1C[C@@H](O)CN1C(=O)[C@@H]1CCCN1C(=O)[C@H](CCCNC(=N)N)NC(=O)[C@H](N)CCCNC(=N)N)C(=O)O [Compound 4, D-Arg(Hyp^3, Leu^8)desArg^9BK] | 83 ± 2% | Inactive | 0.339 µM | – | > 9.55 µM | – | – | – | – | – | –
4 | CC(=O)N[C@@H](CCCCN)C(=O)N[C@@H](CCCNC(=N)N)C(=O)N1CCC[C@H]1C(=O)N1C[C@H](O)C[C@H]1C(=O)NCC(=O)N[C@@H](Cc1ccccc1)C(=O)N[C@@H](CO)C(=O)N1CCC[C@H]1C(=O)N[C@@H](CC(C)C)C(=O)O [Compound 5, AcLys(Hyp^3, Leu^8)desArg^9BK] | 66 ± 1% | Inactive | 0.178 µM | – | > 9.55 µM | 0.03 | 0 | 0.30 | – | – | –
5 | CC(=O)N[C@@H](CCCCN)C(=O)N[C@@H](CCCNC(=N)N)C(=O)N1CCC[C@H]1C(=O)N1CCC[C@H]1C(=O)NCC(=O)N[C@@H](Cc1ccccc1)C(=O)N[C@@H](CO)C(=O)N1Cc2ccccc2C[C@@H]1C(=O)N[C@@H](CC(C)C)C(=O)O [Compound 11, AcLys(D-Tic^7, Leu^8)desArg^9BK] (Ac-KRPPGFS[dTic]L-OH; C-terminus assumed) | – | Inactive | 6.76 µM | – | – | 0.37 | 0 | – | 0% | 1.41 µM | –
6 | CC(=O)N[C@@H](CCCCN)C(=O)N[C@@H](CCCNC(=N)N)C(=O)N1CCC[C@H]1C(=O)N1CCC[C@H]1C(=O)NCC(=O)N[C@@H](Cc1ccccc1)C(=O)N(C)[C@@H](C)C(=O)N1CCC[C@H]1C(=O)N[C@@H](CC(C)C)C(=O)O [Compound 21, AcLys(N-MeAla^6, Leu^8)desArg^9BK, reference compound] (Ac-KRPPGF[NMeA]PL-OH; C-terminus assumed) | 0% | Inactive | 0.282 µM | Inactive | – | 0 | 0.01 | 0.19 | – | – | –
7 | CC[C@H](C)[C@H](NC(=O)[C@@H](Cc1ccc2ccccc2c1)NC(=O)[C@H](C)N(C)C(=O)[C@H](Cc1ccccc1)NC(=O)CNC(=O)[C@@H]1CCCN1C(=O)[C@@H]1CCCN1C(=O)[C@H](CCCNC(=N)N)NC(=O)[C@H](CCCCN)NC(C)=O)C(=O)O [Compound 22, AcLys(N-MeAla^6, D-βNal^7, IIe^8)desArg^9BK] (Ac-KRPPGF[NMeA][d2Nal]I-OH; C-terminus assumed) | 0% | Inactive | 0.537 µM | P.ag. | – | 0.03 | 0 | – | – | – | –
8 | D-Arg(Hyp^3, D-Hyp^7(trans propyl), Oic^8)desArg^9BK [Compound 33, reference compound] | – | 6.99 ± 0.04 | – | – | – | 0 | 0 | 0 | – | – | 7.94 ± 0.06
